PubChem BioAssay AID1963974 (Molecular Pharmacology Branch, DTP, NCI, 2024)

Test system: 648629-189-R-J1-PDC spheroids with HUVEC/MSC, viability
Assay: Anticancer human tumor 648629-189-R-J1-PDC patient-derived bladder carcinoma cell line growth inhibition [PI3K]
Settings: for IC50: curve of first compound; for viability, T/C: stronger effect = lower value
In short: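 Tumor cells were combined with HUVEC and MSCs into spheroids, then dosed with PI3K-inhibitor combinations over half-log ranges capped near clinical Cmax or 10 microM.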

[1] = second compound 0.0316 µM, first compound 0.0316 µM
[2] = second compound 0.0316 µM, first compound 0.1 µM
[3] = second compound 0.1 µM, first compound 0.0316 µM
[4] = second compound 0.1 µM, first compound 0.1 µM
[5] = second compound 0.316 µM, first compound 0.0316 µM
[6] = second compound 0.316 µM, first compound 0.1 µM
[7] = second compound 1 µM, first compound 0.0316 µM
[8] = second compound 1 µM, first compound 0.1 µM
[9] = second compound 3.16 µM, first compound 0.0316 µM
[10] = second compound 3.16 µM, first compound 0.1 µM
[11] = second compound 10 µM, first compound 0.0316 µM
[12] = second compound 10 µM, first compound 0.1 µM
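Further: spheroids exposed to agents for seven days before reading.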
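Wherever viability, T/C is given: percent of vehicle control luminescence where 100% = DMSO treated spheroids.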

## CC(=O)c1c(C)c2cnc(Nc3ccc(N4CCNCC4)cn3)nc2n(C2CCCC2)c1=O + CC(Nc1ncnc2nc[nH]c12)c1cc2cccc(Cl)c2c(=O)n1-c1ccccc1
Second compound 0.0316 µM
  IC50: > 0.1 µM
Second compound 0.1 µM
  IC50: > 0.1 µM
Second compound 0.316 µM
  IC50: > 0.1 µM
Second compound 1 µM
  IC50: > 0.1 µM
Second compound 3.16 µM
  IC50: > 0.1 µM
Second compound 10 µM
  IC50: > 0.1 µM
Second compound 0.0316 µM, first compound 0.000316 µM
  viability, T/C: 102%
Second compound 0.0316 µM, first compound 0.001 µM
  viability, T/C: 104%
Second compound 0.0316 µM, first compound 0.00316 µM
  viability, T/C: 101%
Second compound 0.0316 µM, first compound 0.01 µM
  viability, T/C: 92.1%
[1]
  viability, T/C: 111%
[2]
  viability, T/C: 102%
Second compound 0.1 µM, first compound 0.000316 µM
  viability, T/C: 102%
Second compound 0.1 µM, first compound 0.001 µM
  viability, T/C: 99.2%
Second compound 0.1 µM, first compound 0.00316 µM
  viability, T/C: 98.5%
Second compound 0.1 µM, first compound 0.01 µM
  viability, T/C: 90.9%
[3]
  viability, T/C: 117%
[4]
  viability, T/C: 116%
Second compound 0.316 µM, first compound 0.000316 µM
  viability, T/C: 93.1%
Second compound 0.316 µM, first compound 0.001 µM
  viability, T/C: 103%
Second compound 0.316 µM, first compound 0.00316 µM
  viability, T/C: 107%
Second compound 0.316 µM, first compound 0.01 µM
  viability, T/C: 107%
[5]
  viability, T/C: 111%
[6]
  viability, T/C: 97.9%
Second compound 1 µM, first compound 0.000316 µM
  viability, T/C: 100%
Second compound 1 µM, first compound 0.001 µM
  viability, T/C: 97.4%
Second compound 1 µM, first compound 0.00316 µM
  viability, T/C: 109%
Second compound 1 µM, first compound 0.01 µM
  viability, T/C: 102%
[7]
  viability, T/C: 112%
[8]
  viability, T/C: 98.9%
Second compound 3.16 µM, first compound 0.000316 µM
  viability, T/C: 90.8%
Second compound 3.16 µM, first compound 0.001 µM
  viability, T/C: 108%
Second compound 3.16 µM, first compound 0.00316 µM
  viability, T/C: 91.9%
Second compound 3.16 µM, first compound 0.01 µM
  viability, T/C: 113%
[9]
  viability, T/C: 101%
[10]
  viability, T/C: 107%
Second compound 10 µM, first compound 0.000316 µM
  viability, T/C: 90.3%
Second compound 10 µM, first compound 0.001 µM
  viability, T/C: 92.2%
Second compound 10 µM, first compound 0.00316 µM
  viability, T/C: 95.3%
Second compound 10 µM, first compound 0.01 µM
  viability, T/C: 88.7%
[11]
  viability, T/C: 89.3%
[12]
  viability, T/C: 94.3%

## CNC(=O)c1ccc(N2C(=S)N(c3ccc(C#N)c(C(F)(F)F)c3)C(=O)C2(C)C)cc1F + CC(Nc1ncnc2nc[nH]c12)c1cc2cccc(Cl)c2c(=O)n1-c1ccccc1
Second compound 0.0316 µM
  IC50: > 10 µM
Second compound 0.1 µM
  IC50: > 10 µM
Second compound 0.316 µM
  IC50: > 10 µM
Second compound 1 µM
  IC50: > 10 µM
Second compound 3.16 µM
  IC50: > 10 µM
Second compound 10 µM
  IC50: > 10 µM
[1]
  viability, T/C: 113%
[2]
  viability, T/C: 107%
Second compound 0.0316 µM, first compound 0.316 µM
  viability, T/C: 101%
Second compound 0.0316 µM, first compound 1 µM
  viability, T/C: 102%
Second compound 0.0316 µM, first compound 3.16 µM
  viability, T/C: 102%
Second compound 0.0316 µM, first compound 10 µM
  viability, T/C: 87.4%
[3]
  viability, T/C: 113%
[4]
  viability, T/C: 98.9%
Second compound 0.1 µM, first compound 0.316 µM
  viability, T/C: 96.6%
Second compound 0.1 µM, first compound 1 µM
  viability, T/C: 97.8%
Second compound 0.1 µM, first compound 3.16 µM
  viability, T/C: 92.8%
Second compound 0.1 µM, first compound 10 µM
  viability, T/C: 80.2%
[5]
  viability, T/C: 105%
[6]
  viability, T/C: 111%
Second compound 0.316 µM, first compound 0.316 µM
  viability, T/C: 93.5%
Second compound 0.316 µM, first compound 1 µM
  viability, T/C: 104%
Second compound 0.316 µM, first compound 3.16 µM
  viability, T/C: 118%
Second compound 0.316 µM, first compound 10 µM
  viability, T/C: 78.9%
[7]
  viability, T/C: 99%
[8]
  viability, T/C: 101%
Second compound 1 µM, first compound 0.316 µM
  viability, T/C: 100%
Second compound 1 µM, first compound 1 µM
  viability, T/C: 97.1%
Second compound 1 µM, first compound 3.16 µM
  viability, T/C: 105%
Second compound 1 µM, first compound 10 µM
  viability, T/C: 88.5%
[9]
  viability, T/C: 92%
[10]
  viability, T/C: 109%
Second compound 3.16 µM, first compound 0.316 µM
  viability, T/C: 93.9%
Second compound 3.16 µM, first compound 1 µM
  viability, T/C: 95.3%
Second compound 3.16 µM, first compound 3.16 µM
  viability, T/C: 95.5%
Second compound 3.16 µM, first compound 10 µM
  viability, T/C: 90.8%
[11]
  viability, T/C: 82.7%
[12]
  viability, T/C: 87.1%
Second compound 10 µM, first compound 0.316 µM
  viability, T/C: 100%
Second compound 10 µM, first compound 1 µM
  viability, T/C: 91.1%
Second compound 10 µM, first compound 3.16 µM
  viability, T/C: 87.7%
Second compound 10 µM, first compound 10 µM
  viability, T/C: 69%

## Cn1cnc2c(F)c(Nc3ccc(Br)cc3Cl)c(C(=O)NOCCO)cc21 + CC(Nc1ncnc2nc[nH]c12)c1cc2cccc(Cl)c2c(=O)n1-c1ccccc1
Second compound 0.0316 µM
  IC50: > 3 µM
Second compound 0.1 µM
  IC50: > 3 µM
Second compound 0.316 µM
  IC50: > 3 µM
Second compound 1 µM
  IC50: > 3 µM
Second compound 3.16 µM
  IC50: > 3 µM
Second compound 10 µM
  IC50: > 3 µM
Second compound 0.0316 µM, first compound 0.00949 µM
  viability, T/C: 101%
Second compound 0.0316 µM, first compound 0.03 µM
  viability, T/C: 86.2%
Second compound 0.0316 µM, first compound 0.0949 µM
  viability, T/C: 84%
Second compound 0.0316 µM, first compound 0.3 µM
  viability, T/C: 101%
Second compound 0.0316 µM, first compound 0.949 µM
  viability, T/C: 93.6%
Second compound 0.0316 µM, first compound 3 µM
  viability, T/C: 81.6%
Second compound 0.1 µM, first compound 0.00949 µM
  viability, T/C: 97.1%
Second compound 0.1 µM, first compound 0.03 µM
  viability, T/C: 93.6%
Second compound 0.1 µM, first compound 0.0949 µM
  viability, T/C: 102%
Second compound 0.1 µM, first compound 0.3 µM
  viability, T/C: 95.5%
Second compound 0.1 µM, first compound 0.949 µM
  viability, T/C: 107%
Second compound 0.1 µM, first compound 3 µM
  viability, T/C: 90.1%
Second compound 0.316 µM, first compound 0.00949 µM
  viability, T/C: 95.8%
Second compound 0.316 µM, first compound 0.03 µM
  viability, T/C: 101%
Second compound 0.316 µM, first compound 0.0949 µM
  viability, T/C: 94%
Second compound 0.316 µM, first compound 0.3 µM
  viability, T/C: 114%
Second compound 0.316 µM, first compound 0.949 µM
  viability, T/C: 105%
Second compound 0.316 µM, first compound 3 µM
  viability, T/C: 79.2%
Second compound 1 µM, first compound 0.00949 µM
  viability, T/C: 105%
Second compound 1 µM, first compound 0.03 µM
  viability, T/C: 100%
Second compound 1 µM, first compound 0.0949 µM
  viability, T/C: 94.9%
Second compound 1 µM, first compound 0.3 µM
  viability, T/C: 98.9%
Second compound 1 µM, first compound 0.949 µM
  viability, T/C: 88.3%
Second compound 1 µM, first compound 3 µM
  viability, T/C: 88.2%
Second compound 3.16 µM, first compound 0.00949 µM
  viability, T/C: 103%
Second compound 3.16 µM, first compound 0.03 µM
  viability, T/C: 101%
Second compound 3.16 µM, first compound 0.0949 µM
  viability, T/C: 94.2%
Second compound 3.16 µM, first compound 0.3 µM
  viability, T/C: 108%
Second compound 3.16 µM, first compound 0.949 µM
  viability, T/C: 89.2%
Second compound 3.16 µM, first compound 3 µM
  viability, T/C: 84.4%
Second compound 10 µM, first compound 0.00949 µM
  viability, T/C: 93.2%
Second compound 10 µM, first compound 0.03 µM
  viability, T/C: 80.3%
Second compound 10 µM, first compound 0.0949 µM
  viability, T/C: 92.1%
Second compound 10 µM, first compound 0.3 µM
  viability, T/C: 92.8%
Second compound 10 µM, first compound 0.949 µM
  viability, T/C: 79%
Second compound 10 µM, first compound 3 µM
  viability, T/C: 68.6%
